Reference: patent publication US8901138B2, “Sulfoximine substituted quinazolines for pharmaceutical compositions” (Boehringer Ingelheim International GmbH, priority 2012, dated 2014)

target: MNK1a (Homo sapiens, UniProt Q9BUB5); assay: MNK1 in vitro kinase assay (assay 2), Z'-LYTE; type: biochemical; conditions: compound concentration of 1 μM
Text: B. MNK1 In Vitro Kinase Assay (Assay 2)
MNK1 Data can be obtained from the MNK1 Z′-LYTE® assay. The MNK1 Z′-LYTE® screening protocol and assay conditions are also described on www.invitrogen.com.
The assay is described as follows:
The Z′-LYTE® biochemical assay employs a fluorescence-based, coupled-enzyme format and is based on the differential sensitivity of phosphorylated and non-phosphorylated peptides to proteolytic cleavage. The peptide substrate is labeled with two fluorophores—one at each end—that make up a FRET pair.
In the primary reaction, the kinase transfers the gamma-phosphate of ATP to a single tyrosine, serine or threonine residue in a synthetic FRET-peptide. In the secondary reaction, a site-specific protease recognizes and cleaves non-phosphorylated FRET-peptides. Phosphorylation of FRET-peptides suppresses cleavage by the Development Reagent. Cleavage disrupts FRET between the donor (i.e., coumarin) and acceptor (i.e., fluorescein) fluorophores on the FRET-peptide, whereas uncleaved, phosphorylated FRET-peptides maintain FRET. A ratiometric method, which calculates the ratio (the Emission Ratio) of donor emission to acceptor emission after excitation of the donor fluorophore at 400 nm, is used to quantitate reaction progress, as shown in the equation below. Emission Ratio=Coumarin Emission(445 nm)/Fluorescein Emission(520 nm)
ASSAY SETUP: The inhibition of kinase activity of MNK1a was assessed using pre-activated GST-MNK1a. The 2×MKNK1 (MNK1) mixture is prepared in 50 mM HEPES pH 7.5, 0.01% BRIJ-35, 10 mM MgCl2, 4 mM MnCl2, 1 mM EGTA, 2 mM DTT. The final 10 μL Kinase Reaction consists of 13.5-54 ng MKNK1 (MNK1) and 2 μM Ser/Thr 07 in 50 mM HEPES pH 7.5, 0.01% BRIJ-35, 10 mM MgCl2, 2 mM MnCl2, 1 mM EGTA, 1 mM DTT. After the 1 hour Kinase Reaction incubation, 5 μL of a 1:32768 dilution of Development Reagent A is added.
The Test Compounds are screened in 1% DMSO (final) in the well.
All Peptide/Kinase Mixtures are diluted to a 2× working concentration in the MNK1 Kinase Buffer.
All ATP Solutions are diluted to a 4× working concentration in Kinase Buffer (50 mM HEPES pH 7.5, 0.01% BRIJ-35, 10 mM MgCl2, 1 mM EGTA).
Development Reagent Solution:
The Development Reagent is diluted in Development Buffer
Bar-coded Corning, low volume NBS, 384-well plate (Corning Cat. #3676)
1. 2.5 μL-4× Test Compound
2. 5 μL-2× Peptide/Kinase Mixture
5. 60-minute Kinase Reaction incubation at room temperature
6. 5 μL-Development Reagent Solution
8. 60-minute Development Reaction incubation at room temperature
9. Read on fluorescence plate reader and analyze the data
The following equations are used for each set of data points: […]
Correction for Background Fluorescence: FSample−FITCFl Ctl
Emission Ratio (using values corrected for background fluorescence):Coumarin
Emission (445 nm)/Fluorescein Emission (520 nm)
% Phosphorylation (% Phos): 1−((Emission Ratio×F100%)−C100%)/((C0%−C100%)+[Emission Ratio×(F100%−F0%)])*100 % Inhibition: 1−(% PhosSample/% Phos0% Inhibition Ctl)*100 FI=Fluorescence Intensity C100%=Average Coumarin emission signal of the 100% Phos. Control C0%=Average Coumarin emission signal of the 0% Phos. Control F100%=Average Fluorescein emission signal of the 100% Phos. Control F0%=Average Fluorescein emission signal of the 0% Phos. Control Graphing Software
SelectScreen® Kinase Profiling Service uses XLfit from IDBS. The dose response curve is curve fit to model number 205 (sigmoidal dose-response model).

MNK1a, sequence (Q9BUB5 1-424 isoform Q9BUB5-2): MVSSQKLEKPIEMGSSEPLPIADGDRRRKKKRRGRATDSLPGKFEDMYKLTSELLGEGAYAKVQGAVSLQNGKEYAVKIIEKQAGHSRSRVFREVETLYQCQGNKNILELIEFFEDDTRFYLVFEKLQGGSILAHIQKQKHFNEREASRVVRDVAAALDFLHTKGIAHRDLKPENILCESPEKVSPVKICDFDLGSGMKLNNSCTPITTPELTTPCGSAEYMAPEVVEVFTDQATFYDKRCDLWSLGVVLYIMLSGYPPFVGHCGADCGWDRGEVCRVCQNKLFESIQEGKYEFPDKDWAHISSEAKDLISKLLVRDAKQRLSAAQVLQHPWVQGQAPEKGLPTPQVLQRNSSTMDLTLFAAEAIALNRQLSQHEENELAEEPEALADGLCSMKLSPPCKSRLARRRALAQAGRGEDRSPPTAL

Compound | inhibition at 1 µM [%]
Cc1cc(N=S(C)(=O)C(C)C)cc2ncnc(Nc3ccc(F)cc3O[C@H]3CCOC3)c12 (some centres unmarked) [Example 2.104] | 95
Cc1cc(N=S(C)(C)=O)cc2ncnc(Nc3ccc(F)cc3OC3COC3)c12 [Example 2.126] | 93
Cc1cc(N=S(C)(C)=O)cc2ncnc(Nc3ccc(F)cc3O[C@@H]3CO[C@H]4[C@@H]3OC[C@@H]4C#N)c12 [Example 2.61] | 98
Cc1cc(N=S2(=O)CCCC2)cc2ncnc(Nc3ccsc3O[C@@H]3CCOC3)c12 [Example 2.8] | 64
CS(C)(=O)=Nc1cc(OC(F)F)c2c(Nc3ccc(F)cc3O[C@H]3CCOC3)ncnc2c1 [Example 1.23] | 94
Cc1cc(N=S2(=O)CCCC2)cc2ncnc(Nc3cccnc3O[C@@H]3CO[C@H]4[C@@H]3OC[C@H]4O)c12 [Example 2.4] | 97
Cc1cc(N=[S@](C)(=O)c2ccccc2)cc2ncnc(Nc3ccc(F)cc3O[C@H]3CCOC3)c12 [Example 2.72] | 71

The remaining lines, values ahead:

inhibition at 1 µM [%] | Compound
55 | CC(C)(C)OC(=O)N1CCC[C@@H](Oc2ncccc2Nc2ncnc3cc(N=S(C)(C)=O)cc(F)c23)C1 [Example 2.77]
85 | CS(C)(=O)=Nc1cc(F)c2c(Nc3ccc(F)cc3O[C@@H]3CCCN(CCO)C3)ncnc2c1 [Example 6.1]
72 | CC(C)(C)OC(=O)N[C@H]1CC[C@H](Oc2ncccc2Nc2ncnc3cc(N=S(C)(C)=O)cc(F)c23)CC1 [Example 2.15]
85 | CO[C@@H]1CCCC[C@H]1Oc1cc(F)ccc1Nc1ncnc2cc(N=S(C)(C)=O)cc(C)c12 [Example 2.67]
103 | Cc1cc(N=S(C)(C)=O)cc2ncnc(Nc3ccc(F)cc3OC3COCOC3)c12 [Example 2.120]

same assay, conditions: pre-activated GST-MNK1a

IC50 [nM] | Compound
21 | CS(C)(=O)=Nc1cc(C(F)F)c2c(Nc3ccc(F)cc3O[C@H]3CCOC3)ncnc2c1 [Example 1.21]
11 | O=S1(=Nc2cc(Cl)c3c(Nc4ccc(F)cc4O[C@@H]4CO[C@@H]5CCO[C@@H]54)ncnc3c2)CCC1 [Example 1.27]
25 | CO[C@@H]1CO[C@H]2[C@@H]1OC[C@H]2Oc1cc(F)ccc1Nc1ncnc2cc(N=S(C)(C)=O)cc(OCCF)c12 [Example 5.6]
17 | CO[C@@H]1CO[C@H]2[C@@H]1OC[C@H]2Oc1cc(F)ccc1Nc1ncnc2cc(N=S(C)(C)=O)cc(C)c12 [Example 2.34]

target: T1, MNK2a (Homo sapiens, UniProt Q9HBH9); assay: MNK2a in vitro kinase assay (assay 1), ADP-Glo; type: biochemical; conditions: preactivated GST-MNK2a, 20 μM ATP, read-out: MNK2 IC50
T1 construct: made in house
Procedure: A. MNK2a In Vitro Kinase Assay (Assay 1)
ASSAY SETUP: The inhibition of kinase activity of MNK2a was assessed using preactivated GST-MNK2a. The white, 384-well OptiPlate F plates were purchased from Perkin Elmer. The ADP-Glo Kinase Assay (including ultra pure ATP) was purchased from Promega (V9103). Activated MNK2a was obtained as described in WO2011/104340. The unlabeled eIF4E peptide (NH2-[…]—CONH2) (SEQ ID NO: 1), differing from Seq. ID No. 5 of WO 2011/104340 by the C-terminal —CONH2 group, was purchased from Thermo Fisher Scientific. All other materials were of highest grade commercially available. Compounds are tested in either serial dilutions or single dose concentrations. The compound stock solutions are 10 mM in 100% DMSO The serial compound dilutions are prepared in 100% DMSO followed by 1:27.3 intermediate dilution in assay buffer. The final DMSO concentration in assay will be <3%. In the 384-well plates 3 μl of test compound from the intermediate dilution is mixed with 4 μl of the activated MNK2 enzyme (final concentration of 10 nM) and 4 μl of the peptide (final concentration of 25 μM)/ultra pure ATP (final concentration of 20 μM), all dissolved in assay buffer. This step is followed by an incubation time of 90 min, then 10 μl of ADP Glo reagent are added, followed by 40 min of incubation. Then 20 μl of kinase detection reagent are admixed. The plates are sealed and after an incubation period of 30 min, the luminescence signal is measured in an Envision reader to determine the amount of produced ADP. All incubation steps are performed at room temperature. The assay buffer consists of 20 mM HEPES, 2 mM DTT, 0.01% BSA, 20 mM MgCl2 and 0.1% Pluronic F-127.
Each assay microtiter plate contains wells with vehicle controls instead of compound (1% DMSO in water) as reference for the high signal (100% CTL, high signal), and wells containing a potent MNK2 inhibitor (final 20 μM, 1% DMSO) as reference for low signal (0% CTL, low signal).
The luminescent signal generated is proportional to the ADP concentration produced and is correlated with activated MNK2 activity. The analysis of the data is performed by the calculation of the percentage of ATP consumption of activated MNK2 in the presence of the test compound compared to the consumption of ATP in the presence of activated MNK2 without compound. (RLU(sample)−RLU(low control))*100/(RLU(high value)−RLU(low control)) [RLU=relative luminescence units]
An inhibitor of the MNK2 enzyme will give values between 100% CTL (no inhibition) and 0% CTL (complete inhibition). Values of more than 100% CTL are normally related to compound/sample specific physico-chemical properties (e.g. solubility, light absorbance, fluorescence).
IC50 values based on dose response curves are calculated with the AssayExplorer software.

T1 sequence (Q9HBH9 whole entry): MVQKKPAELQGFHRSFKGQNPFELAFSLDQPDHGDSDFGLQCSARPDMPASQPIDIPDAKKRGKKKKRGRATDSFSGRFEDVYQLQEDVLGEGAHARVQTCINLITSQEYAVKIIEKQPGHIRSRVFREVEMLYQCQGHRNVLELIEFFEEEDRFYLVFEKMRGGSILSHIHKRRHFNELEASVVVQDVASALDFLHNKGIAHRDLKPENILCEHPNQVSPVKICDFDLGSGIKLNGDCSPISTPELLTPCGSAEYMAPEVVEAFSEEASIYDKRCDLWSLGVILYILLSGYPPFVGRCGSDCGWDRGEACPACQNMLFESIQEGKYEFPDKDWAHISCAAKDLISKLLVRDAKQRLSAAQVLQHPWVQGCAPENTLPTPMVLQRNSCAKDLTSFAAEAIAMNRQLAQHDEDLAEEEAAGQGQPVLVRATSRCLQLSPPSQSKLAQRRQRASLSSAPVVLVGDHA

Compound | IC50 [nM]
Cc1cc(N=S(C)(=O)C(C)C)cc2ncnc(Nc3ccc(F)cc3O[C@H]3CCOC3)c12 (some centres unmarked) [Example 2.104] | 4
Cc1cc(N=S(C)(C)=O)cc2ncnc(Nc3ccc(F)cc3OC3COC3)c12 [Example 2.126] | 10
Cc1cc(N=S(C)(C)=O)cc2ncnc(Nc3ccc(F)cc3O[C@@H]3CO[C@H]4[C@@H]3OC[C@@H]4C#N)c12 [Example 2.61] | 2
Cc1cc(N=S2(=O)CCCC2)cc2ncnc(Nc3ccsc3O[C@@H]3CCOC3)c12 [Example 2.8] | 44
CS(C)(=O)=Nc1cc(OC(F)F)c2c(Nc3ccc(F)cc3O[C@H]3CCOC3)ncnc2c1 [Example 1.23] | 4
Cc1cc(N=S2(=O)CCCC2)cc2ncnc(Nc3cccnc3O[C@@H]3CO[C@H]4[C@@H]3OC[C@H]4O)c12 [Example 2.4] | 4
Cc1cc(N=[S@](C)(=O)c2ccccc2)cc2ncnc(Nc3ccc(F)cc3O[C@H]3CCOC3)c12 [Example 2.72] | 30

The remaining compounds from weak to strong by IC50, led by results:

IC50 [nM] | Compound
164 | CC(C)(C)OC(=O)N1CCC[C@@H](Oc2ncccc2Nc2ncnc3cc(N=S(C)(C)=O)cc(F)c23)C1 [Example 2.77]
8 | CS(C)(=O)=Nc1cc(F)c2c(Nc3ccc(F)cc3O[C@@H]3CCCN(CCO)C3)ncnc2c1 [Example 6.1]
7 | CC(C)(C)OC(=O)N[C@H]1CC[C@H](Oc2ncccc2Nc2ncnc3cc(N=S(C)(C)=O)cc(F)c23)CC1 [Example 2.15]
3 | CO[C@@H]1CCCC[C@H]1Oc1cc(F)ccc1Nc1ncnc2cc(N=S(C)(C)=O)cc(C)c12 [Example 2.67]
2 | CS(C)(=O)=Nc1cc(C(F)F)c2c(Nc3ccc(F)cc3O[C@H]3CCOC3)ncnc2c1 [Example 1.21]
2 | CO[C@@H]1CO[C@H]2[C@@H]1OC[C@H]2Oc1cc(F)ccc1Nc1ncnc2cc(N=S(C)(C)=O)cc(OCCF)c12 [Example 5.6]
2 | Cc1cc(N=S(C)(C)=O)cc2ncnc(Nc3ccc(F)cc3OC3COCOC3)c12 [Example 2.120]
1 | O=S1(=Nc2cc(Cl)c3c(Nc4ccc(F)cc4O[C@@H]4CO[C@@H]5CCO[C@@H]54)ncnc3c2)CCC1 [Example 1.27]
1 | CO[C@@H]1CO[C@H]2[C@@H]1OC[C@H]2Oc1cc(F)ccc1Nc1ncnc2cc(N=S(C)(C)=O)cc(C)c12 [Example 2.34]
